The subject of experiment [1] is wound region of rabbit ears (granulation tissue, capillaries). Nature of the experiment: In vivo wound healing assay (rabbit ear wounds). More on the design: species or system New Zealand White rabbits. The following applies: for Area of granulation tissue / Number of blood vessels / increment of the area of granulation tissue, in words / increment of the number of blood vessels, in words: 5 μM; for Area of granulation tissue / Number of blood vessels: spotted or injected intradermally to wound, negative control = 100%; for increment of the area of granulation tissue, in words / increment of the number of blood vessels, in words: comment on Table 1. The procedure: Female New Zealand White rabbits (body weight 2.0 kg) were used as experimental animals in this assay. PBS solution containing 0.1% BSA (BSA-PBS solution) was prepared as control solution for negative control group (comparative example 1). sphingosylphosphorylcholine (comparative example 2), phytosphingosine (comparative example 3), N-acethylphytosphingosine (comparative example 4) as positive control group, and tetraacetyl phytosphingosine (example 1) were dissolved in ethanol or methanol respectively. Each portion of the solutions was added to silicone glass tube. Then, it was charged with N2 gas, and added 0.1% BSA-PBS solution. After coupling them with water sonicator and vortex, these solutions were spotted on and injected intradernally to wound region of experimental animals. At the same time, to study an effect of the angiogenesis as concentrations of tetraacethylsphingosine, the animal was treated with 0.1 μM, 1 μM, 2 μM and 5 μM of tetraacethylsphingosine, and campared with the results. Experimental animals were put into special stainless cages which was designed suitably to assay experimental animals, anesthetized by injecting ketanine (3-4 mg/kg) intramuscularly. The hair and corneous tissue of innerside of both ears were removed with shaving and washing, and then were disinfected with 70% ethanol. Four wound regions per ear were formed by using 6 mm punch for sldn histological examination (Stiefel, Germany) under sterile condition if possible, and each wound region was spotted or injected intradennally 30-50 μl of the control solution or each treatment material. Wound regions were sealed with cathereep (Nichiban Co., Tokyo Japan) which was cut in size which are greater than that of wound region to prevent contamination of the wound regions and formation of crust. Then, the wound regions were protected with 2×2 gauze, and ears of rabbit were bandaged with elastopore (Nichiban Co., Tokyo Japan). Subsequently, the rabbits were bred in a cage per a rabbit. After 48 hrs, same procedure was repeated. On 4 days and 8 days after forming wound regions, sacrificing the rabbits and treating tissue for histological study. For histological study, wound tissues were fixed with 10% formalin, cut it in half longitudinally and made paraffin block. Then, approximately 5 μm of segment was made, attached it to slide and stained with hematoxylin and eosin to observe a change of epidermis and dermis, and stained with Massons Trichrome to observe a degree of collagen formation of granulation tissue.
First, stained tissue specimen was calibrated with ocular micrometer of optical microscope for image analysis. Then, After photographing each histological change aspects with digital camera under 40× and 100× objective lens and saving them on computer (Pentium III), image analysis was carried out with Scion Image for Windows software which was provided by (C) 2000 Scion corporation as follows: that is, degree of epidermis migration could be determined by measuring the distance from left to right boundary of wound, and thickness of newly formed epidermis could be determined by measuring the thickness of three spots in 1 mm of pitch and averaging measured values. To compare with degree of granulation tissue formation of dermis, three methods were used: 1) A method of measuring total area of newly formed granulation tissue and comparing with it; 2) A method of counting the number of cells such as fibroblast presented in six spots of center region of wound under high magnification (100×) and comparing with it; and 3) A method of determining degree of angiogenesis by counting the number of capillaries in granulation tissue in a same way as described above. If there was eschar, it wasn't determined. The data obtained from the negative control group, the positive control group and the experinental group were analyzed statistically by carrying out paired student's t test. […]

Experiment [2] deals with HUVEC (human umbilical vein endothelial cell). The experiment can be described thus: Angiogenesis test of HUVEC (tube formation test). The experiment is classed as cell-based. The note with it: FIG. 4 and FIG. 5. The procedure: Above suspension procedure was repeated twice.
Matrigel was prepared as follows: First, collagen solution was prepared by mixing commercially available acid-soluble porcine type I collagen (3.0 mg/ml), 5× DMEM and buffer (0.05 N NaOH, 2.2% NaHCO3, 200 mM HEPES; 7:2:1), loaded to 24 well or 96 well (100-300 μl/well) dividedly, and then incubated for approximately 10 mins to form a gel due to polymerization of collagen. Primary culture was carried to obtain HUVEC (those which were passaged five times), removed cells at 37° C., washed cells with PBS, detached cells with trypsin/EDTA, loaded cells to wells (4-6×10^4 cells/well), and then fiuther incubated for 12-18 hrs.

Experiment [3] concerns endothelial cells. The experiment can be described thus: Migration assay of endothelial cells (Transwell). The experiment is classed as cell-based. The note with it: 0.1 μM, 1 μM and 5 μM; 2 hrs; fewer migrated cells with increasing concentration; FIG. 6 and FIG. 7. As for the experimental part: Transwell membranes were coated with 0.2% gelatin, and then were left for 12 hrs at 4° C. The membrane for control group was treated with BSA-PBS as described in the above examples, whereas the membranes for experimental group were treated with 0.1 μM, 1 μM and 5 μM of tetraacetylphytosphingosine solution according to the present invention respectively as described in the above examples. After incubating these membranes for 2 hrs, staining them with Diff Quick solution, and then observing them on slide glass.

From patent US20060025377A1, “Inhibitor of angiogenesis and kit for treating cancer comprising the inhibitor” (priority 2002, published 2006) come the findings set out here.

Regarding `CCCCCCCCCCCCC/C=C/[C@@H](O)[C@@H](N)COP(=O)([O-])OCC[N+](C)(C)C` [SPC, sphingosylphosphorylcholine], in experiment [1], the “Area of granulation tissue” value is on record as 151%; the “Number of blood vessels” value is 148%; the “increment of the area of granulation tissue, in words” value is given as “prompted increment”; the “increment of the number of blood vessels, in words” value is on record as “prompted increment”.

`CCCCCCCCCCCCCC[C@@H](O)[C@@H](O)[C@@H](N)CO` [PS, phytosphingosine]: in experiment [1], the “Area of granulation tissue” value worked out at 112% and the “Number of blood vessels” value is given as 106%.

As for tetraacetylphytosphingosine [TAPS], the “formation of blood vessels (tube formation), in words” value in experiment [2] (0.1 μM) is reported as “inhibited effectively a formation of blood vessels”. In experiment [2] (1 μM), the “formation of blood vessels (tube formation), in words” value is given as “inhibited nearly completely a formation of blood vessels”. For the same molecule, the “migration of endothelial cells, in words” value in experiment [3] is on record as “migration of endothelial cells were inhibited”. Further, the “number of blood vessels (angiogenesis), in words” value in experiment [1] (0.1 μM, 1 μM, 2 μM and 5 μM, 4 days after treatment, vs negative control, FIG. 1) is on record as “inhibited angiogenesis greatly”. Besides, the “area of granulation tissue, in words” value in experiment [1] (0.1 μM, 1 μM, 2 μM and 5 μM, 4 days after treatment, vs negative control, FIG. 2) is “decreased the area of granulation tissue”. In experiment [1], the “Area of granulation tissue” value was 76%; the “Number of blood vessels” value came to 31%; the “increment of the area of granulation tissue, in words” value is recorded as “inhibited increment”; the “increment of the number of blood vessels, in words” value was “inhibited increment”.

Take `CCCCCCCCCCCCCC[C@@H](O)[C@@H](O)[C@H](CO)NC(C)=O` [NAPS, N-acethylphytosphingosine]: in experiment [1], the “Area of granulation tissue” value worked out at 212% and the “Number of blood vessels” value is on record as 96%.
